We go through 4 compounds from US20070219159A1, “CYCLODEXTRIN COMPOSITIONS AND METHODS OF TREATING VIRAL INFECTIONS” (priority 2002, published 2007).

Read-outs that look alike come from different tables or passages of the source.

The subject of one data set is HCV. The experiment in a line: In vitro anti-HCV assay in HCV RNA-replicating cell line AVA5. It counts as cell-based. The note with it: HCV. On the procedure: (§1) The antiviral activity of test compounds were assayed in the stably HCV RNA-replicating cell line. AVA5, derived by transfection of the human hepatoblastoma cell line, Huh^7 (Blight et al., 2000). Experimental drugs were added to dividing cultures once daily for three days. Media was changed with each addition of compound. Cultures generally started the assays at 50% confluence and reached confluence during the last day of treatment. HCV RNA and cellular β-actin RNA levels were assessed 24 hours after the last dose of compound using dot blot hybridization. Assays were conducted using a single dose of test compound (in triplicate cultures).
(§2) Both HCV and β-actin RNA levels in the treated cultures were expressed as a percentage of the mean levels of RNA detected in untreated cultures. β-actin RNA levels were used both as a measure of toxicity, and to normalize the amount of cellular RNA in each sample. A level of 30% or less HCV RNA (relative to control cultures) was considered to be a positive antiviral effect, and a level of 50% or less β-actin RNA (relative to control cultures) is considered to be a cytotoxic effect.
(§3) Dividing cultures of AVAB cells were treated once daily for three days (media was changed with each addition of compound) with 4 concentrations of test compounds (3 cultures per concentration). A total of 6 untreated control cultures, and triplicate cultures treated with 10, 3, and 1 IU/ml α-interferon (active antiviral with no cytotoxicity), and 100, 10, and 1 μM ribavir ([…]) served as controls. HCV RNA and cellular β-actin FNA levels were assessed 24 hours after the last dose of compound using dot blot hybridization. β-actin RNA levels were used to normalize the amount of cellular RNA in each sample.
(§4) Toxicity analyses were performed on separate plates from those used for the antiviral assays. Cells for the toxicity analyses were cultured and treated with test compounds with the same schedule and under identical culture conditions used for the antiviral evaluations. Each compound was tested at 4 concentrations, each in triplicate cultures. Uptake of neutral red dye was used to determine the relative level of toxicity 24 hours following the last treatment. The absorbance of internalized dye at […] (A510) was used for the quantitative analysis. Values in test cultures were compared to 9 cultures of untreated cells maintained on the same plate as the test cultures.
(§5) Assays similar to those described above were conducted.

Another data set deals with HSV-2 strain MS. As to the kind of experiment: CPE reduction assay in Vero cells, HSV-2. The note with it: HSV-2; final concentrations up to 8 mg/ml. The class given is cell-based.
In a further data set the test system is HSV-2. The following applies: in general 1000-fold less drug than Examples 1-6 and 10.
For the next data set, the system named is HSV-1. The note with it: in general 1000-fold less drug than Examples 1-6 and 10.
The subject of the next data set is West Nile. As to the kind of experiment: In vitro antiviral screening (Table 1), West Nile.
The subject of the next data set is HSV-1 strain KOS1.1. The experiment in a line: CPE reduction assay in Vero cells, HSV-1. The following applies: HSV-1; final concentrations up to 8 mg/ml. The class given is cell-based.
Data set [1] in a line: In vitro anti-HCV assay in HCV RNA-replicating cell line AVA5. It counts as cell-based. The following applies: human, AVA5 cells (HCV RNA-replicating Huh7 line); toxicity control, no antiviral activity; read-out: approximate CC90. Here is the method:
as §1, §2, §3, §4, §5

A further data set relates to Vero cells. The following applies: 48 hours exposure; extrapolated from cell killing graph (FIG. 5).
Data set [2] relates to vaccinia Western Reserve strain (WR). It counts as cell-based.
The conditions of data set [3]: HSV-infected cells; cited from earlier work.

Turning to `OC[C@H]1O[C@@H]2O[C@H]3[C@H](O)[C@@H](O)[C@@H](O[C@H]4[C@H](O)[C@@H](O)[C@@H](O[C@H]5[C@H](O)[C@@H](O)[C@@H](O[C@H]6[C@H](O)[C@@H](O)[C@@H](O[C@H]7[C@H](O)[C@@H](O)[C@@H](O[C@H]1[C@H](O)[C@H]2O)O[C@@H]7CO)O[C@@H]6CO)O[C@@H]5CO)O[C@@H]4CO)O[C@@H]3CO` [ACD, α-cyclodextrin], the “SI = CC50/EC50” value with HHV-6, in the data set with Punta Toro, in the data set on VZV, with MV, in the data set with HCMV and in the data set with Vaccinia was 0 throughout. The “SI = CC50/EC50” value is on record as 0 with HSV-2; 0 with Flu B; greater than 1.5 with EBV; 0 in the data set with HRV; 0 in the data set on Ad; 0 in the data set on HSV-1. Further, the “SI = CC50/EC50” value in the data set with Yellow fever, in the data set on MCMV, in the data set with VEE, with HHV-7, in the data set on Rhino and in the data set on RSV was 0 in each case. Besides, the “SI = CC50/EC50” value in the data set with Pichinde, with Cowpox, with Resp syncytial, with West Nile, in the data set on Flu A and in the data set on Measles was 0 in each case. In the data set on PIV, the “SI = CC50/EC50” value is reported as 0. The “S.I. for HCV” value in the data set on HCV is 0.72. For the same compound, the “antiviral activity in infected Vero cells” value in the data set on HSV-2 strain MS and in the data set on HSV-1 strain KOS1.1 was “no significant antiviral activity” in each case.

Regarding `NC(=O)c1ncn([C@@H]2O[C@H](CO)[C@@H](O)[C@H]2O)n1` [ribavirin, reference compound], in data set [1], the CC90 at 3 days is roughly 100 µM.

Turning to methyl-β-cyclodextrin [MBCD], in the data set on Vero cells, the “CC50 at 48 hours for Vero cells” value is “approximately 5.5 mg/ml”. For the same compound, the “SI = CC50/EC50” value was 0 in the data set on Punta Toro (Punta Toro); 0 in the data set on MV; 0 with VEE; 0 with Pichinde; 0 (?) with West Nile; 0 with Flu A (Flu A). Further, the “S.I. for HCV” value with HCV was 1.69. In addition, the “anti-vaccinia virus activity (cytopathic effect versus untreated wells)” value in data set [2] (MBCD 4 to 4.5 mg/ml, β-CD 7.2 mg/ml, pre- and post-infection, 48 hours) was “much fewer and smaller areas of cytopathic effect”. Also, the “concentration at which anti-vaccinia virus activity was observed” value in data set [2] (flat portion of the cell killing curve) is less than 4.5 mg/mL.

As for penciclovir triphosphate, the intracellular half life in data set [3] is 12 h.
